Among the data in ChEMBL document CHEMBL1121852, “Nonsteroidal antiinflammatory agents. 3. Synthesis of the positional isomers of 4'-chloro-5-methoxy-3-biphenylylacetic acid and their antiinflammatory and analgesic activities” (J Med Chem, 1981) are ED50, LD50 and inhibition in vivo values, retold here.

The subject of one series is Mus musculus. Put plainly: Tested for inhibitory activity after administration of compound at 50 mg/kg perorally using AcOH writhing method. It counts as functional. As to conditions: route oral.
A short description of series [1]: Tested for acute toxicity after administration of compound at 50 mg/kg intraperitoneally in mice. It counts as organism-based. Further details: dose 50 mg/kg, route intraperitoneal. Conditions: mouse, in vivo, ip.
Series [2] has as its system Rattus norvegicus. The experiment in a line: Percent inhibition of carrageenan induced rat paw edema 3 hr after a peroral administration of 20 mg/kg. It counts as functional. Conditions: route oral.
The test system of series [3] is Rattus norvegicus. Put plainly: Percent inhibition of carrageenan induced rat paw edema 3 hr after a peroral administration of 50 mg/kg. The format is functional. As to conditions: route oral.
Series [4] has as its system Rattus norvegicus. Put plainly: Percent inhibition of carrageenan induced rat paw edema 3 hr after a peroral administration of 10 mg/kg. It counts as functional. Conditions: route oral.
Series [5] has as its system Rattus norvegicus. Put plainly: Percent inhibition after administration at 2 mg/kg perorally using carrageenan induced rat paw edema method. It counts as functional. As to conditions: route oral.
For series [6], the system named is Rattus norvegicus. The experiment in a line: Percent inhibition of carrageenan induced rat paw edema 3 hr after a peroral administration of 0.5 mg/kg. It counts as functional. As to conditions: route oral.

With `COc1ccc(CC(=O)O)cc1-c1ccc(Cl)cc1`, the ED50 in the series on Mus musculus stood at 26.7 mg/kg. Besides, the LD50 in series [1] is 673 mg/kg. This compound also yielded an inhibition in vivo at 20 mg/kg with Rattus norvegicus [2] of 19%. In the series on Rattus norvegicus [3], this compound displayed an inhibition in vivo at 50 mg/kg of 49%.

`COc1cccc(CC(=O)O)c1-c1ccc(Cl)cc1`: the median effective dose (ED50) in the series on Mus musculus is > 50 mg/kg. Besides, in series [1], the LD50 was determined as 566 mg/kg. In addition, the inhibition in vivo at 50 mg/kg with Rattus norvegicus [3] was found to be 0%.

Turning to `COc1cccc(-c2ccc(Cl)cc2)c1CC(=O)O`, in the series with Mus musculus, the ED50 was > 50 mg/kg. The LD50 in series [1] amounted to 476 mg/kg. For the same compound, in the series with Rattus norvegicus [3], the inhibition in vivo at 50 mg/kg was found to be 0%.

As to `COc1ccc(CC(=O)O)c(-c2ccc(Cl)cc2)c1`, the 50% effective dose (ED50) in the series on Mus musculus is > 50 mg/kg. The compound also registered a 50% lethal dose (LD50) in series [1] of 566 mg/kg. The compound also gave an inhibition in vivo at 50 mg/kg with Rattus norvegicus [3] of 0%.

In the case of `COc1ccc(-c2ccc(Cl)cc2)cc1CC(=O)O`, the 50% effective dose (ED50) in the series with Mus musculus was > 50 mg/kg. The median lethal dose (LD50) in series [1] stood at 566 mg/kg. Moreover, in the series on Rattus norvegicus [3], at 50 mg/kg the inhibition in vivo was 0%.

Regarding `COc1c(CC(=O)O)cccc1-c1ccc(Cl)cc1`, the ED50 in the series on Mus musculus is > 50 mg/kg. Further, in series [1], the LD50 is 283 mg/kg. The inhibition in vivo at 50 mg/kg in the series on Rattus norvegicus [3] is 16%.

In the series with Mus musculus, `COc1cc(CC(=O)O)cc(-c2ccc(Cl)cc2)c1` returned an ED50 of 16.1 mg/kg. The same compound returned a 50% lethal dose (LD50) in series [1] of 570 mg/kg. In the series on Rattus norvegicus [4], this compound registered an inhibition in vivo at 10 mg/kg of 39%. In the series with Rattus norvegicus [2], the inhibition in vivo at 20 mg/kg came out at 65%. The compound further returned an inhibition in vivo at 50 mg/kg with Rattus norvegicus [3] of 53%.

As for `COc1cc(-c2ccc(Cl)cc2)ccc1CC(=O)O`, in the series on Mus musculus, the ED50 is > 50 mg/kg. Besides, in series [1], the LD50 stood at 400 mg/kg. In the series on Rattus norvegicus [3], this compound returned an inhibition in vivo at 50 mg/kg of 27%.

In the case of `COc1ccc(-c2ccc(Cl)cc2)c(CC(=O)O)c1`, the ED50 in the series with Mus musculus was > 50 mg/kg. Moreover, in series [1], the LD50 was determined as 566 mg/kg. The compound further showed an inhibition in vivo at 50 mg/kg in the series on Rattus norvegicus [3] of 13%.

As for `COc1cc(CC(=O)O)ccc1-c1ccc(Cl)cc1`, the 50% effective dose (ED50) with Mus musculus was found to be 35.1 mg/kg. Further, the median lethal dose (LD50) in series [1] came to 238 mg/kg. The compound further returned an inhibition in vivo at 20 mg/kg in the series with Rattus norvegicus [2] of 27%. In the series with Rattus norvegicus [3], the inhibition in vivo at 50 mg/kg is 38%.

In turn, `COc1ccc2c(c1)c(CC(=O)O)c(C)n2C(=O)c1ccc(Cl)cc1` [INDOMETHACIN] yielded an inhibition in vivo at 50 mg/kg in the series on Rattus norvegicus [3] of 45%. In addition, the inhibition in vivo at 2 mg/kg in the series on Rattus norvegicus [5] was determined as 25%. In addition, in the series on Rattus norvegicus [6], the inhibition in vivo at 0.5 mg/kg came out at 19%.
